Test results from ChEMBL document CHEMBL1141235, “Synthesis and preliminary evaluation of [3H]PSB-0413, a selective antagonist radioligand for platelet P2Y12 receptors” (Bioorg Med Chem Lett, 2005).

Biological target: P2Y purinoceptor 12 (Homo sapiens, UniProt Q9H244)
Assay: Binding affinity to P2Y12 receptor expressed in human platelets from 0.047 to 50 nM

Sequence of P2Y purinoceptor 12 (Q9H244 whole entry): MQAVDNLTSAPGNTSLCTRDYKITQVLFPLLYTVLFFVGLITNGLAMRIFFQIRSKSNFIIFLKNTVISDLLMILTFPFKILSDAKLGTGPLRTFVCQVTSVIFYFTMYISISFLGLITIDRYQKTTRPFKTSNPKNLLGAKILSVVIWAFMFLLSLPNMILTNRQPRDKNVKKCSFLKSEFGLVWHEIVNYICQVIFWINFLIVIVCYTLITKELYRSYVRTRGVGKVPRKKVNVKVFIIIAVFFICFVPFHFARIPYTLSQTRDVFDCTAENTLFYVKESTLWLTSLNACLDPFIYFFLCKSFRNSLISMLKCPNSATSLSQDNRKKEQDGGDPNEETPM

Kd: 4.57 nM
SMILES: [3H]C([3H])([3H])C([3H])([3H])CSc1nc(N)c2ncn([C@@H]3O[C@H](COP(=O)(O)OP(=O)(O)C(Cl)(Cl)P(=O)(O)O)[C@@H](O)[C@H]3O)c2n1
